Experimental data taken from ChEMBL document CHEMBL5344406, “1,2,3-Triazole-containing hybrids with potential antibacterial activity against ESKAPE pathogens” (2022).
≈ marks a conversion by molar mass, not a printed value.

How the values were obtained:
Type in all cases: functional
[1] = test system: Staphylococcus aureus; test: Antibacterial activity against methicillin-resistant Staphylococcus aureus assessed as bacterial growth inhibition by agar dilution method
[2] = test system: Pseudomonas aeruginosa; test: Antibacterial activity against Pseudomonas aeruginosa assessed as bacterial growth inhibition by broth dilution method
[3] = test system: Klebsiella pneumoniae; test: Antibacterial activity against Klebsiella pneumoniae assessed as bacterial growth inhibition by broth dilution method
[4] = test system: Bacillus subtilis; test: Antibacterial activity against Bacillus subtilis ATCC 6633 assessed as bacterial growth inhibition incubated for 18 to 24 hrs by turbidimetry; details: time 18-24 hrs
[5] = test system: Pseudomonas aeruginosa; test: Antibacterial activity against Pseudomonas aeruginosa ATCC 27853 assessed as bacterial growth inhibition incubated for 18 to 24 hrs by turbidimetry; details: time 18-24 hrs
[6] = test system: Staphylococcus aureus; test: Antibacterial activity against Staphylococcus aureus ATCC 25923 assessed as bacterial growth inhibition incubated for 18 to 24 hrs by turbidimetry; details: time 18-24 hrs
[7] = test system: Escherichia coli; test: Antibacterial activity against Escherichia coli ATCC 25922 assessed as bacterial growth inhibition incubated for 18 to 24 hrs by turbidimetry; details: time 18-24 hrs
[8] = test system: Escherichia coli; test: Antibacterial activity against multidrug-resistant Escherichia coli assessed as bacterial growth inhibition incubated for 24 hrs by […] method
[9] = test system: Streptococcus pyogenes; test: Antibacterial activity against erythromycin-resistant Streptococcus pyogenes clinical isolate 2 assessed as bacterial growth inhibition incubated for 24 hrs by CLSI based broth microdilution method
[10] = test system: Staphylococcus aureus; test: Antibacterial activity against Staphylococcus aureus clinical isolate assessed as bacterial growth inhibition by disk diffusion method
[11] = test system: Escherichia coli; test: Antibacterial activity against Escherichia coli clinical isolate assessed as bacterial growth inhibition by disk diffusion method
[12] = test system: Streptococcus pyogenes; test: Potency index, ratio of azithromycin MIC to test compound MIC for antibacterial activity against erythromycin-resistant Streptococcus pyogenes clinical isolate 2 assessed as bacterial growth inhibition incubated for 24 hrs by CLSI based broth microdilution method
[13] = test system: Staphylococcus aureus; test: Antibacterial activity against methicillin-resistant Staphylococcus aureus ATCC 43300 assessed as bacterial growth inhibition incubated for 24 hrs by CLSI based broth microdilution method
[14] = test system: Staphylococcus aureus; test: Potency index, ratio of azithromycin MIC to test compound MIC for antibacterial activity against penicillin-resistant Staphylococcus aureus ATCC 31007 assessed as bacterial growth inhibition incubated for 24 hrs by CLSI based broth microdilution method
[15] = test system: Streptococcus pneumoniae; test: Antibacterial activity against erythromycin-resistant Streptococcus pneumoniae AB11 expressing ermB/mefA assessed as bacterial growth inhibition incubated for 24 hrs by CLSI based broth microdilution method
[16] = test system: Streptococcus pneumoniae; test: Potency index, ratio of azithromycin MIC to test compound MIC for antibacterial activity against erythromycin-resistant Streptococcus pneumoniae AB11 expressing ermB/mefA assessed as bacterial growth inhibition incubated for 24 hrs by CLSI based broth microdilution method
[17] = test system: Streptococcus pneumoniae; test: Potency index, ratio of azithromycin MIC to test compound MIC for antibacterial activity against erythromycin-resistant Streptococcus pneumoniae B1 expressing ermB assessed as bacterial growth inhibition incubated for 24 hrs by CLSI based broth microdilution method
[18] = test system: Streptococcus pneumoniae; test: Antibacterial activity against erythromycin-resistant Streptococcus pneumoniae B1 expressing ermB assessed as bacterial growth inhibition incubated for 24 hrs by CLSI based broth microdilution method
[19] = test system: Staphylococcus aureus; test: Potency index, ratio of azithromycin MIC to test compound MIC for antibacterial activity against methicillin-resistant Staphylococcus aureus ATCC 43300 assessed as bacterial growth inhibition incubated for 24 hrs by CLSI based broth microdilution method
[20] = test system: Staphylococcus aureus; test: Antibacterial activity against penicillin-resistant Staphylococcus aureus ATCC 31007 assessed as bacterial growth inhibition incubated for 24 hrs by CLSI based broth microdilution method
[21] = test system: Klebsiella pneumoniae; test: Antibacterial activity against Klebsiella pneumoniae producing extended spectrum beta-lactamases assessed as bacterial growth inhibition
[22] = test system: Escherichia coli; test: Antibacterial activity against Escherichia coli assessed as bacterial growth inhibition
[23] = test system: Klebsiella aerogenes; test: Antibacterial activity against Enterobacter aerogenes assessed as bacterial growth inhibition
[24] = test system: Enterococcus faecium; test: Antibacterial activity against Enterococcus faecium assessed as bacterial growth inhibition
[25] = test system: Enterococcus faecalis; test: Antibacterial activity against Enterococcus faecalis assessed as bacterial growth inhibition
[26] = test system: Klebsiella pneumoniae; test: Antibacterial activity against Klebsiella pneumoniae assessed as bacterial growth inhibition
[27] = test system: Escherichia coli; test: Antibacterial activity against Escherichia coli producing extended spectrum beta-lactamases assessed as bacterial growth inhibition
[28] = test system: Staphylococcus aureus; test: Antibacterial activity against methicillin-sensitive Staphylococcus aureus assessed as bacterial growth inhibition
[29] = test system: Pseudomonas aeruginosa; test: Antibacterial activity against Pseudomonas aeruginosa assessed as bacterial growth inhibition
[30] = test system: Staphylococcus epidermidis; test: Antibacterial activity against methicillin-sensitive Staphylococcus epidermidis assessed as bacterial growth inhibition
[31] = test system: Enterobacter cloacae; test: Antibacterial activity against Enterobacter cloacae assessed as bacterial growth inhibition
[32] = test system: Proteus vulgaris; test: Antibacterial activity against Proteus vulgaris assessed as bacterial growth inhibition
[33] = test system: Providencia rettgeri; test: Antibacterial activity against Providencia rettgeri assessed as bacterial growth inhibition
[34] = test system: Klebsiella pneumoniae; test: Antibacterial activity against Klebsiella pneumoniae assessed as bacterial growth inhibition by broth microdilution method
[35] = test system: Staphylococcus aureus; test: Antibacterial activity against Staphylococcus aureus assessed as bacterial growth inhibition by broth microdilution method
[36] = test system: Escherichia coli; test: Antibacterial activity against Escherichia coli assessed as bacterial growth inhibition by broth microdilution method
[37] = test system: Staphylococcus aureus; test: Potency index, ratio of Norfloxacin MIC to test compound MIC for antibacterial activity against Staphylococcus aureus assessed as bacterial growth inhibition by broth dilution method
[38] = test system: Staphylococcus aureus; test: Antibacterial activity against Staphylococcus aureus assessed as bacterial growth inhibition by broth dilution method
[39] = test system: Staphylococcus aureus; test: Antibacterial activity against multidrug-resistant Staphylococcus aureus clinical isolate assessed as bacterial growth inhibition by broth dilution method
[40] = test system: Klebsiella pneumoniae; test: Antibacterial activity against Klebsiella pneumoniae NCDC 138 assessed as bacterial growth inhibition incubated for 24 hrs by serial dilution method
[41] = test system: Escherichia coli; test: Antibacterial activity against Escherichia coli ATCC 25922 assessed as bacterial growth inhibition by broth microdilution method
[42] = test system: Escherichia coli; test: Antibacterial activity against Escherichia coli MTCC 443 assessed as bacterial growth inhibition by broth microdilution method
[43] = test system: Escherichia coli; test: Antibacterial activity against Escherichia coli assessed as bacterial growth inhibition by serial dilution method
[44] = test system: Staphylococcus aureus; test: Antibacterial activity against Staphylococcus aureus MTCC 737 assessed as bacterial growth inhibition by serial dilution method
[45] = test system: Staphylococcus aureus; test: Antibacterial activity against Staphylococcus aureus ATCC 25923 assessed as bacterial growth inhibition by broth microdilution method
[46] = test system: Bacillus subtilis; test: Antibacterial activity against Bacillus subtilis assessed as bacterial growth inhibition by agar well diffusion method
[47] = test system: Streptococcus pyogenes; test: Antibacterial activity against Streptococcus pyogenes MTCC 442 assessed as bacterial growth inhibition by broth microdilution method
[48] = test system: Bacillus subtilis; test: Antibacterial activity against Bacillus subtilis assessed as bacterial growth inhibition by serial dilution method
[49] = test system: Bacillus subtilis; test: Antibacterial activity against Bacillus subtilis assessed as bacterial growth inhibition incubated for 24 hrs by serial dilution method
[50] = test system: Salmonella enterica; test: Antibacterial activity against Salmonella enterica assessed as bacterial growth inhibition incubated for 24 hrs by serial dilution method
[51] = test system: Staphylococcus aureus; test: Antibacterial activity against Staphylococcus aureus MTCC 96 assessed as bacterial growth inhibition by broth microdilution method
[52] = test system: Staphylococcus aureus; test: Antibacterial activity against Staphylococcus aureus assessed as bacterial growth inhibition by agar well diffusion method
[53] = test system: Escherichia coli; test: Antibacterial activity against Escherichia coli MTCC 1687 assessed as bacterial growth inhibition by serial dilution method
[54] = test system: Bacillus subtilis; test: Antibacterial activity against Bacillus subtilis MTCC 441 assessed as bacterial growth inhibition incubated for 24 hrs by serial dilution method
[55] = test system: Staphylococcus epidermidis; test: Antibacterial activity against Staphylococcus epidermidis assessed as bacterial growth inhibition by serial dilution method
[56] = test system: Pseudomonas aeruginosa; test: Antibacterial activity against Pseudomonas aeruginosa MTCC 1688 assessed as bacterial growth inhibition by broth microdilution method

COc1cc(/C=C/c2ccc(O)cc2)cc(OC)c1 [PTEROSTILBENE]
MIC [1]: 41 µg/mL (≈ 160 µM)

CC1(C)S[C@@H]2[C@H](NC(=O)Cc3ccccc3)C(=O)N2[C@H]1C(=O)O [PENICILLIN G]
MIC [2]: 18.8 µg/mL (≈ 56.1 µM)
MIC [3]: 9.37 µg/mL (≈ 28 µM)

Nc1c(C(=O)N2CCN(c3cc4c(cc3F)c(=O)c(C(=O)O)cn4C3CC3)CC2)nnn1-c1ccccc1
MIC [4]: 15.6 µg/mL (≈ 30.1 µM)
MIC [5]: 15.6 µg/mL (≈ 30.1 µM)
MIC [6]: 15.6 µg/mL (≈ 30.1 µM)
MIC [7]: 15.6 µg/mL (≈ 30.1 µM)

Clc1cccc(Cn2cc(COc3ccc(-c4nc5ccccc5s4)cc3)nn2)c1
MIC [8]: 8.02 µg/mL (≈ 18.5 µM)

O=C(N[C@H](CO)[C@H](O)c1ccc([N+](=O)[O-])cc1)C(Cl)Cl [CHLORAMPHENICOL]
MIC [9]: > 256 µg/mL
MIC [10]: 11.6 µg/mL (≈ 35.9 µM)
MIC [11]: 22.4 µg/mL (≈ 69.3 µM)
Ratio [12]: >16
MIC [13]: > 256 µg/mL
Ratio [14]: >16
MIC [15]: > 256 µg/mL
Ratio [16]: >16
Ratio [17]: >16
MIC [18]: > 256 µg/mL
Ratio [19]: >16
MIC [20]: > 256 µg/mL

CO/N=C1\C(=O)N(Cc2cn(CC(=O)N3CCC[C@@H]4CN(c5c(F)cc6c(=O)c(C(=O)O)cn(C7CC7)c6c5OC)C[C@@H]43)nn2)c2ccc(C)cc21
MIC [21]: ≤ 0.03 µg/mL
MIC [22]: ≤ 0.03 µg/mL
MIC [23]: ≤ 0.03 µg/mL
MIC [24]: ≤ 0.03 µg/mL
MIC [25]: ≤ 0.03 µg/mL
MIC [26]: ≤ 0.03 µg/mL
MIC [27]: ≤ 0.03 µg/mL
MIC [28]: ≤ 0.03 µg/mL
MIC [29]: ≤ 0.03 µg/mL
MIC [30]: ≤ 0.03 µg/mL
MIC [31]: ≤ 0.03 µg/mL
MIC [32]: ≤ 0.03 µg/mL
MIC [33]: ≤ 0.03 µg/mL

CC1(C)S[C@@H]2[C@H](NC(=O)[C@H](N)c3ccc(O)cc3)C(=O)N2[C@H]1C(=O)O [AMOXICILLIN]
MIC [34]: 25 µg/mL (≈ 68.4 µM)
MIC [35]: 25 µg/mL (≈ 68.4 µM)
MIC [36]: 25 µg/mL (≈ 68.4 µM)

CC(=O)OC[C@@H]1O[C@H](n2cc(Cn3c(=O)cc(C)n(CCCCCCCC[P+](c4ccccc4)(c4ccccc4)c4ccccc4)c3=O)nn2)[C@@H](OC(C)=O)[C@H]1OC(C)=O.[Br-]
Ratio [37]: 7.5
MIC [38]: 1 µg/mL
MIC [39]: 1 µg/mL

O=C(O)c1cn(C2CC2)c2cc(N3CCNCC3)c(F)cc2c1=O [CIPROFLOXACIN]
MIC [40]: 6.25 µg/mL (≈ 18.9 µM)
MIC [41]: 11 µg/mL (≈ 33.2 µM)
MIC [42]: 24.9 µg/mL (≈ 75.1 µM)
MIC [43]: 25 µg/mL (≈ 75.4 µM)
MIC [44]: 12.5 µg/mL (≈ 37.7 µM)
MIC [45]: 12 µg/mL (≈ 36.2 µM)
MIC [46]: 0.5 µg/mL (≈ 1.51 µM)
MIC [4]: 0.125 µg/mL (≈ 0.377 µM)
MIC [29]: 1.56 µg/mL (≈ 4.71 µM)
MIC [47]: 24.9 µg/mL (≈ 75.1 µM)
MIC [48]: 25 µg/mL (≈ 75.4 µM)
MIC [49]: 6.25 µg/mL (≈ 18.9 µM)
MIC [50]: 6.25 µg/mL (≈ 18.9 µM)
MIC [51]: 24.9 µg/mL (≈ 75.1 µM)
MIC [52]: 0.5 µg/mL (≈ 1.51 µM)
MIC [53]: 12.5 µg/mL (≈ 37.7 µM)
MIC [54]: 6.25 µg/mL (≈ 18.9 µM)
MIC [55]: 25 µg/mL (≈ 75.4 µM)
MIC [56]: 24.9 µg/mL (≈ 75.1 µM)
